Reference: patent US20150290192A1, “INHIBITORS OF BRUTON'S TYROSINE KINASE” (HOFFMANN-LA ROCHE INC., priority 2012, published 2015)
Read-outs that look alike come from different tables or passages of the source. Marks after values point to notes of the source that are not given here.

What was measured:
Pharmacokinetics in rat = type: in vivo; settings: for CL / clearance: 0.5 mg/kg (iv); for Oral Bioavailability / bioavailability: 0.5 (iv), 2 (po) mg/kg; for clearance / bioavailability: plasma; for bioavailability: 2 mg/kg
[1] = tested on: OVA sensitized and challenged mice, allergen-induced bronchoconstriction; assay: Ovalbumin-induced allergic airway disease: allergen-induced bronchoconstriction; settings: Intranasal
[2] = tested on: human mast cells (FCεRI activation); assay: Human mast cell activation, mediator release after FCεRI activation; type: cell-based; settings: N = 3 donors
Procedure: One million human cord blood derived CD34+ hematopoietic stem cells (HSCs) from different donors (AllCells #CB008F-S, Emeryville, Calif.) were cultured for eight weeks in a serum-free complete medium (StemPro-34 with supplements; Invitrogen, Carlsbad, Calif.), with recombinant h-SCF (100 ng/ml) and h-IL6 (50 ng/ml). During the first week of culturing, recombinant h-IL3 (10 ng/ml) was also included to support HSCs differentiation. After 8 weeks of culture, cells were stimulated with recombinant h-IL-4 (10 ng/ml) for 5 days. Confirmation of the mast cell differentiation process was routinely done by FACS to check for c-kit and FcsRI expression; differentiated cells were routinely more than 90% c-kit positive, FceRI positive. Differentiated mast cells were sensitized with […] anti-NP IgE (Serotec, Raleigh, N.C.) overnight at 37° C. Cells were washed and then treated with Compound 1 for 1 hour at 37° C. After treatment, cells were cross-linked with […] NP(30)-BSA (Biosearch Technologies, Novato Calif.) for 30 minutes (for histamine and lipid mediator assessment) or overnight (for cytokine assessment). Culture supernatants were collected and assayed for histamine (Oxford Biomedical Research, Rochester Hills, Mich.), PGD2 and LTC4 (Cayman Chemical Company, Ann Arbor Mich.), and IL-5 and IL-13 (Bio-Rad Bio-Plex Pro cytokine quantification kit) release as per kits' instructions. Compound 1, Compound 2 and Compound 3 reduced the release of these mediators into the supernatant in a concentration dependent manner up to 100% efficacy and the IC50 values are reported in Table 2.

Btk kinase = Btk kinase (Homo sapiens, UniProt Q06187); assay: Btk Biacore binding assay; settings: for off rate: Biacore; for kon: read-out: Biacore Ka
Procedure: Analyses were performed on a Biacore T-100. Btk kinase was avi-tagged and co-expressed in baculovirus with biotin ligase to generate single site biotinylated Btk (Avidity, LLC). Biotinylated target was captured on Biacore streptavidin sensor chips (Series S Sensor Chip SA) at densities of ˜10000 resonance units (1 ru˜1 pg protein/mm2). […] Compounds were injected for 100 seconds association time and dissociation was followed for 20 min.

Pharmacokinetics in dog = type: in vivo; settings: for CL / clearance: 1.0 mg/kg (iv); for Oral Bioavailability / bioavailability: 1.0 (iv), 1.0 (po) mg/kg; for clearance / bioavailability: plasma; for bioavailability: 1 mg/kg
Bruton's Tyrosine Kinase = Bruton's Tyrosine Kinase (Homo sapiens, UniProt Q06187); assay: Bruton's Tyrosine Kinase (BTK) inhibition TR-FRET competition assay; type: binding; settings: for IC50: inactivated state of BTK, 18-24 h at 14° C.
Procedure: This BTK competition assay measures compound potency (IC50) for the inactivated state of Bruton's Tyrosine Kinase using FRET (Firster/Fluorescence Resonance Energy Transfer) technology. The BTK-Eu complex was incubated on ice one hour prior to use at a starting concentration of 50 nM BTK-Bioease™: 10 nM Eu-streptavidin (Perkin-Elmer Catalog#AD0062). The assay buffer consisted of 20 mM HEPES (pH 7.15), 0.1 mM DTT, 10 mM MgCl2, 0.5 mg/ml BSA with 3% Kinase Stabilizer (Fremont Biosolutions, Catalog #STB-K02). After 1 h, the reaction mixture from above was diluted 10 fold in assay buffer to make 5 nM BTK: InM Eu-Streptavidin complex (donor fluorophore). 18 l of a mixture of 0.11 nM BTK-Eu and 0.11 nM Kinase Tracer 178 (Invitrogen, Catalog #PV5593,) with BTK-Eu alone as no negative control, was then dispensed into 384-well flat bottom plates (Greiner, 784076). Compounds to be tested in assay were prepared as 10× concentrations and serial dilution in half-log increments was performed in DMSO so as to generate 10 point curves. To initiate the FRET reaction, compounds prepared as 10× stock in DMSO was added to the plates and the plates were incubated 18-24 h at 14° C.
After the incubation the plates were read on a BMG Pherastar Fluorescent plate reader (or equivalent) and used to measure the emission energy from the europium donor fluorophore (620 nm emission) and the FRET (665 nm emission). The negative control well values were averaged to obtain the mean minimum. The positive “no inhibitor” control wells were averaged to obtain the mean maximum. Percent of maximal FRET was calculated using following equation:
% max FRET=100×[(FSRcmpd−FSRmean min)/(FSRmean max−FSRmean min)]
where FSR=FRET Signal ratio. % Max FRET curves were plotted in Activity Base (Excel) and the IC50(%), hill slope, z′ and % CV were determined. The mean IC50 and standard deviation will be derived from duplicate curves (singlet inhibition curves from two independent dilutions) using Microsoft Excel.

[3] = tested on: human B cells (BCR activation); assay: Human B cell antibody production after BCR activation; type: cell-based; settings: Homo sapiens, B-cell, 240 h, 10 days culture, N = 3 donors
Procedure: Human total B cells were enriched with RosetteSep human B cell enrichment cocktail (#28921, Vancouver, BC) from buffy coat leukocyte packs (New York Blood Center) following manufacturer's protocol. Enriched B cell purity (around 80%) was checked by FACS with CD19+ staining. B cells were suspended (0.1 million cells/well/100 μl) in RPMI-1640 based conditional medium (50 ng/ml IL-2, 50 ng/ml IL-10, and […] anti-IgD for the activation of B cells to produce IgG/IgM; 10 ng/ml IL-4, 10 ng/ml IL-10, 25 ng/ml IL-21, and […] anti-CD40 for the activation of B cells to produce IgE) together with Compound 1 (1 nM-10 μM). Cells were cultured for 10 days (for IgG/IgM production) or 14 days (for IgE production) at 37° C. Culture supernatants were collected for IgM, IgG, and IgE analysis following Bethyl Laboratory's protocol (#E80-104, #E80-100, #E80-108, Montgomery, Tex.).

[4] = delivered dose 0.3 mg/kg, deposited dose 0.3 mg/kg
[5] = delivered dose 1.0 mg/kg, deposited dose 1.0 mg/kg
[6] = delivered dose 3.0 mg/kg, deposited dose 3.0 mg/kg
[7] = read-out: IC50 Histamine release

Chain of Btk kinase (Q06187 whole entry): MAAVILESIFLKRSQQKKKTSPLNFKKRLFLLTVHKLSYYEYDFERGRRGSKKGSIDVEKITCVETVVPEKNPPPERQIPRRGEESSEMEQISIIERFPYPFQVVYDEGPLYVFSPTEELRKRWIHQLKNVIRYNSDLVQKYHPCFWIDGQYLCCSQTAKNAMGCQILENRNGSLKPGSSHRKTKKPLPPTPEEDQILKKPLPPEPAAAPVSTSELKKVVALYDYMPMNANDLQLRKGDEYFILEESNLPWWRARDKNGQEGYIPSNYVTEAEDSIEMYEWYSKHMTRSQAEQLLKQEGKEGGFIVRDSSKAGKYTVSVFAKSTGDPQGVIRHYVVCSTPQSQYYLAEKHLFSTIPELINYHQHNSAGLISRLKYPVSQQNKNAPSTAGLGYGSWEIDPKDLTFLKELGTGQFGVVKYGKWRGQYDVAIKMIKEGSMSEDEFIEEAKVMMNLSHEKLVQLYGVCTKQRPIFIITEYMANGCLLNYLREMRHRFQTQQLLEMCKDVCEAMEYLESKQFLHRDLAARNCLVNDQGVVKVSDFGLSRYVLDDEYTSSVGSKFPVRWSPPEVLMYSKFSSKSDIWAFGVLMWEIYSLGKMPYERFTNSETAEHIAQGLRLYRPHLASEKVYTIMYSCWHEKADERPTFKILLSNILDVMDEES
Chain of Bruton's Tyrosine Kinase (Q06187 whole entry): as above

IC50 ([2]; read-out: IC50 1L-13 release) [nM]	IC50 ([2]; read-out: IC50 GM-CSF release) [nM]	IC50 [2, 7] [nM]	IC50 ([2]; read-out: IC50 IL-5 release) [nM]	IC50 ([2]; read-out: IC50 PGD2 release) [nM]	Kd (Btk kinase) [nM]	off rate (Btk kinase)	kon (Btk kinase) [M⁻¹ s⁻¹]	Btk inhibitor potency (FRET) (Bruton's Tyrosine Kinase)	IC50 (Bruton's Tyrosine Kinase) [nM]	IC50 ([3]; read-out: IC50 IgG production) [nM]	IC50 ([3]; read-out: IC50 IgM production) [nM]	SMILES	% reduction in airway resistance (R) [1, 4]	% reduction in airway resistance (R) [1, 5]	% reduction in airway resistance (R) [1, 6]	other results
91.9	26	9.6	13.2	3.09	1.48	very slow	453000	very potent	1.1	9.26	3.28	Cn1nc(Nc2cc(-c3cccc(-n4ccc5cc(C(C)(C)C#N)cc(F)c5c4=O)c3CO)nn(C)c2=O)cc1CN1CCC1 [Compound 2, 2-(2-{3-[5-(5-Azetidin-1-ylmethyl-1-methyl-1H-pyrazol-3-ylamino)-1-methyl-6-oxo-1,6-dihydro-pyridazin-3-yl]-2-hydroxymethyl-phenyl}-8-fluoro-1-oxo-1,2-dihydro-isoquinolin-6-yl)-2-methyl-propionitrile]	53%	64* %	105* %	CL (Pharmacokinetics in rat; Table 8): high; Oral Bioavailability (Pharmacokinetics in rat; Table 8): low; clearance (Pharmacokinetics in rat; Table 8): 84.9 mL/min/kg; bioavailability (Pharmacokinetics in rat; Table 8): < 2%; CL (Pharmacokinetics in dog; Table 8): high; Oral Bioavailability (Pharmacokinetics in dog; Table 8): low; clearance (Pharmacokinetics in dog; Table 8): 35 mL/min/kg; bioavailability (Pharmacokinetics in dog; Table 8): 4%
97.4	28.6	21.7	86.7	5.31	0.119	very slow	1.07e+06	very potent	0.2	3.17	4.76	COCCNCc1ccc(Nc2cc(-c3cccc(N4CCc5cc(C(C)(C)C)ccc5C4=O)c3CO)cn(C)c2=O)nc1 [Compound 3, 6-tert-Butyl-2-[2-hydroxymethyl-3-(5-{5-[(2-methoxy-ethylamino)-methyl]-pyridin-2-ylamino}-1-methyl-6-oxo-1,6-dihydro-pyridin-3-yl)-phenyl]-3,4-dihydro-2H-isoquinolin-1-one]	77* %	83* %	93* %	CL (Pharmacokinetics in rat; Table 9): high; Oral Bioavailability (Pharmacokinetics in rat; Table 9): low; clearance (Pharmacokinetics in rat; Table 9): 111 mL/min/kg; bioavailability (Pharmacokinetics in rat; Table 9): 7%; CL (Pharmacokinetics in dog; Table 9): high; Oral Bioavailability (Pharmacokinetics in dog; Table 9): low; clearance (Pharmacokinetics in dog; Table 9): 31.4 mL/min/kg; bioavailability (Pharmacokinetics in dog; Table 9): 8%
